PubChem BioAssay (NCI)
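Tested at 5 concentrations; 48 h exposure; 96-well plates; endpoints linearly interpolated, else capped at highest concentration. Abbreviation: GI50, concentration required for 50% inhibition of growth. TGI is the concentration that stops growth completely.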

Assays:
Assay in all cases: DTP human tumour cell line panel, 48 h; in the data active = GI50 below about 0.43 µM; inactive = the rest
SR leukemia = test system: SR leukemia
SK-MEL-5 melanoma = test system: SK-MEL-5 melanoma
NCI-H522 lung = test system: NCI-H522 lung
OVCAR-8 ovarian = test system: OVCAR-8 ovarian
A549 NSCLC = test system: A549 NSCLC
COLO 205 colon = test system: COLO 205 colon
K-562 leukemia = test system: K-562 leukemia
DU-145 prostate = test system: DU-145 prostate
SNB-19 CNS = test system: SNB-19 CNS
LOX IMVI melanoma = test system: LOX IMVI melanoma
U251 CNS = test system: U251 CNS
SF-295 CNS = test system: SF-295 CNS
MALME-3M melanoma = test system: MALME-3M melanoma
CCRF-CEM leukemia = test system: CCRF-CEM leukemia
SF-268 CNS = test system: SF-268 CNS
786-0 renal = test system: 786-0 renal
MCF7 breast = test system: MCF7 breast
UACC-257 melanoma = test system: UACC-257 melanoma

Clc1ccc(C2=Cc3nc2c(-c2ccccc2)c2ccc([nH]2)c(-c2ccccc2)c2nc(c(-c4ccccc4)c4ccc([nH]4)c3-c3ccccc3)C=C2)cc1
> 62.5 µM: TGI (SR leukemia) | TGI (SK-MEL-5 melanoma) | TGI (NCI-H522 lung) | TGI (OVCAR-8 ovarian) | TGI (A549 NSCLC) | TGI (COLO 205 colon) | TGI (K-562 leukemia) | TGI (DU-145 prostate) | TGI (SNB-19 CNS) | TGI (LOX IMVI melanoma) | TGI (U251 CNS) | TGI (SF-295 CNS) | TGI (MALME-3M melanoma) | TGI (CCRF-CEM leukemia) | TGI (SF-268 CNS) | TGI (786-0 renal) | TGI (MCF7 breast) | TGI (UACC-257 melanoma)

CCOC(=O)/C=C(/C(=O)OCC)n1cc(C)c(=O)[nH]c1=O
9.81 µM: TGI (OVCAR-8 ovarian)
5.94 µM: TGI (LOX IMVI melanoma)
21.1 µM: TGI (SK-MEL-5 melanoma)
29.7 µM: TGI (DU-145 prostate)
2.14 µM: TGI (NCI-H522 lung)
18.8 µM: TGI (U251 CNS)
4.61 µM: TGI (CCRF-CEM leukemia)
4.48 µM: TGI (MALME-3M melanoma)
8.28 µM: TGI (786-0 renal)
24.6 µM: TGI (SF-268 CNS)
31.6 µM: TGI (SF-295 CNS)
4.73 µM: TGI (K-562 leukemia)
5.24 µM: TGI (SR leukemia)
26 µM: TGI (UACC-257 melanoma)
32.2 µM: TGI (SNB-19 CNS)
31.5 µM: TGI (A549 NSCLC)
4.07 µM: TGI (COLO 205 colon)
12.7 µM: TGI (MCF7 breast)

O=C(O)c1ccc(C2=Nc3cccc4cccc(c34)N2)cc1
> 100 µM: TGI (SR leukemia) | TGI (SK-MEL-5 melanoma) | TGI (NCI-H522 lung) | TGI (OVCAR-8 ovarian) | TGI (A549 NSCLC) | TGI (COLO 205 colon) | TGI (K-562 leukemia) | TGI (DU-145 prostate) | TGI (SNB-19 CNS) | TGI (LOX IMVI melanoma) | TGI (U251 CNS) | TGI (SF-295 CNS) | TGI (MALME-3M melanoma) | TGI (CCRF-CEM leukemia) | TGI (SF-268 CNS) | TGI (786-0 renal) | TGI (MCF7 breast) | TGI (UACC-257 melanoma)

COc1cc([N+](=O)[O-])cc2c1NC(=O)C2(C)SC (configuration not stated)
> 100 µM: TGI (SR leukemia) | TGI (SK-MEL-5 melanoma) | TGI (NCI-H522 lung) | TGI (OVCAR-8 ovarian) | TGI (A549 NSCLC) | TGI (COLO 205 colon) | TGI (K-562 leukemia) | TGI (DU-145 prostate) | TGI (SNB-19 CNS) | TGI (LOX IMVI melanoma) | TGI (U251 CNS) | TGI (SF-295 CNS) | TGI (MALME-3M melanoma) | TGI (CCRF-CEM leukemia) | TGI (SF-268 CNS) | TGI (786-0 renal) | TGI (MCF7 breast) | TGI (UACC-257 melanoma)

COc1ccc(N2C(=O)C3c4[nH]c5ccc(OC)cc5c4C4CCC(c5ccccc5)CC4C3C2=O)cc1 (configuration not stated)
> 88.9 µM: TGI (UACC-257 melanoma)
> 86.1 µM: TGI (COLO 205 colon)
> 49.2 µM: TGI (OVCAR-8 ovarian)
> 100 µM: TGI (SK-MEL-5 melanoma) | TGI (DU-145 prostate)
28.8 µM: TGI (SNB-19 CNS)
> 46.6 µM: TGI (SF-268 CNS)
27.4 µM: TGI (NCI-H522 lung)
30.3 µM: TGI (MALME-3M melanoma)
56.3 µM: TGI (LOX IMVI melanoma)
12.2 µM: TGI (786-0 renal)
24.2 µM: TGI (SF-295 CNS)
22.8 µM: TGI (U251 CNS)
> 85.4 µM: TGI (MCF7 breast)
10.3 µM: TGI (CCRF-CEM leukemia)
40.3 µM: TGI (A549 NSCLC)
> 43.9 µM: TGI (K-562 leukemia)
2.45 µM: TGI (SR leukemia)

NC(=S)NN=C1Cc2ccccc2C1
> 100 µM: TGI (SR leukemia) | TGI (SK-MEL-5 melanoma) | TGI (NCI-H522 lung) | TGI (OVCAR-8 ovarian) | TGI (A549 NSCLC) | TGI (COLO 205 colon) | TGI (K-562 leukemia) | TGI (DU-145 prostate) | TGI (SNB-19 CNS) | TGI (LOX IMVI melanoma) | TGI (U251 CNS) | TGI (SF-295 CNS) | TGI (MALME-3M melanoma) | TGI (CCRF-CEM leukemia) | TGI (SF-268 CNS) | TGI (786-0 renal) | TGI (MCF7 breast) | TGI (UACC-257 melanoma)

COc1ccccc1CC1(O)OC(=O)c2ccccc21 (configuration not stated)
> 100 µM: TGI (SR leukemia) | TGI (SK-MEL-5 melanoma) | TGI (NCI-H522 lung) | TGI (OVCAR-8 ovarian) | TGI (A549 NSCLC) | TGI (COLO 205 colon) | TGI (K-562 leukemia) | TGI (DU-145 prostate) | TGI (SNB-19 CNS) | TGI (LOX IMVI melanoma) | TGI (U251 CNS) | TGI (SF-295 CNS) | TGI (MALME-3M melanoma) | TGI (CCRF-CEM leukemia) | TGI (SF-268 CNS) | TGI (786-0 renal) | TGI (MCF7 breast) | TGI (UACC-257 melanoma)

CN1CCN(c2ccc3nc(-c4ccc5nc(CCCc6ccc(N(CCCl)CCCl)cc6)[nH]c5c4)[nH]c3c2)CC1
> 100 µM: TGI (SR leukemia) | TGI (SK-MEL-5 melanoma) | TGI (NCI-H522 lung) | TGI (OVCAR-8 ovarian) | TGI (A549 NSCLC) | TGI (COLO 205 colon) | TGI (K-562 leukemia) | TGI (DU-145 prostate) | TGI (SNB-19 CNS) | TGI (LOX IMVI melanoma) | TGI (U251 CNS) | TGI (SF-295 CNS) | TGI (MALME-3M melanoma) | TGI (CCRF-CEM leukemia) | TGI (SF-268 CNS) | TGI (786-0 renal) | TGI (MCF7 breast) | TGI (UACC-257 melanoma)

c1cc2nnc1SCCSCCCSCCS2
> 100 µM: TGI (SR leukemia) | TGI (SK-MEL-5 melanoma) | TGI (NCI-H522 lung) | TGI (OVCAR-8 ovarian) | TGI (A549 NSCLC) | TGI (COLO 205 colon) | TGI (K-562 leukemia) | TGI (DU-145 prostate) | TGI (SNB-19 CNS) | TGI (LOX IMVI melanoma) | TGI (U251 CNS) | TGI (SF-295 CNS) | TGI (MALME-3M melanoma) | TGI (CCRF-CEM leukemia) | TGI (SF-268 CNS) | TGI (786-0 renal) | TGI (MCF7 breast) | TGI (UACC-257 melanoma)

O=C(O)C(C(F)(F)F)C(F)(F)F (tested in a mixture with another compound)
> 100 µM: TGI (SR leukemia) | TGI (SK-MEL-5 melanoma) | TGI (NCI-H522 lung) | TGI (OVCAR-8 ovarian) | TGI (A549 NSCLC) | TGI (COLO 205 colon) | TGI (K-562 leukemia) | TGI (DU-145 prostate) | TGI (SNB-19 CNS) | TGI (LOX IMVI melanoma) | TGI (U251 CNS) | TGI (SF-295 CNS) | TGI (MALME-3M melanoma) | TGI (CCRF-CEM leukemia) | TGI (SF-268 CNS) | TGI (786-0 renal) | TGI (MCF7 breast) | TGI (UACC-257 melanoma)

COc1ccc(/C=C2/C(=O)N(/C=C3\C(=O)Oc4ccccc4C3=O)C(=NC(C)=O)N2C)cc1OC
> 100 µM: TGI (SR leukemia) | TGI (SK-MEL-5 melanoma) | TGI (NCI-H522 lung) | TGI (OVCAR-8 ovarian) | TGI (A549 NSCLC) | TGI (COLO 205 colon) | TGI (K-562 leukemia) | TGI (DU-145 prostate) | TGI (SNB-19 CNS) | TGI (LOX IMVI melanoma) | TGI (U251 CNS) | TGI (SF-295 CNS) | TGI (MALME-3M melanoma) | TGI (CCRF-CEM leukemia) | TGI (SF-268 CNS) | TGI (786-0 renal) | TGI (MCF7 breast) | TGI (UACC-257 melanoma)
inactive: GI50 (SNB-19 CNS) > 100 µM

O=C1NC(=O)C23C(=O)NC(=O)C12C1C=CC3CC1 (configuration not stated)
> 10 µM: TGI (SR leukemia) | TGI (SK-MEL-5 melanoma) | TGI (NCI-H522 lung) | TGI (OVCAR-8 ovarian) | TGI (A549 NSCLC) | TGI (COLO 205 colon) | TGI (K-562 leukemia) | TGI (DU-145 prostate) | TGI (SNB-19 CNS) | TGI (LOX IMVI melanoma) | TGI (U251 CNS) | TGI (SF-295 CNS) | TGI (MALME-3M melanoma) | TGI (CCRF-CEM leukemia) | TGI (SF-268 CNS) | TGI (786-0 renal) | TGI (MCF7 breast) | TGI (UACC-257 melanoma)
